In ChEMBL document CHEMBL1131836, “Potent, easily synthesized huperzine A-tacrine hybrid acetylcholinesterase inhibitors” (Bioorg Med Chem Lett, 1999):

Experiments:
[1] = molecular target: Butyrylcholinesterase (Rattus norvegicus, UniProt Q9JKC1)
Description: Inhibitory potency against rat serum Butyrylcholinesterase with BW284c51 as AChE inhibitor

[2] = molecular target: T1, Acetylcholinesterase (Rattus norvegicus, UniProt P37136)
T1 sequence (P37136 whole entry): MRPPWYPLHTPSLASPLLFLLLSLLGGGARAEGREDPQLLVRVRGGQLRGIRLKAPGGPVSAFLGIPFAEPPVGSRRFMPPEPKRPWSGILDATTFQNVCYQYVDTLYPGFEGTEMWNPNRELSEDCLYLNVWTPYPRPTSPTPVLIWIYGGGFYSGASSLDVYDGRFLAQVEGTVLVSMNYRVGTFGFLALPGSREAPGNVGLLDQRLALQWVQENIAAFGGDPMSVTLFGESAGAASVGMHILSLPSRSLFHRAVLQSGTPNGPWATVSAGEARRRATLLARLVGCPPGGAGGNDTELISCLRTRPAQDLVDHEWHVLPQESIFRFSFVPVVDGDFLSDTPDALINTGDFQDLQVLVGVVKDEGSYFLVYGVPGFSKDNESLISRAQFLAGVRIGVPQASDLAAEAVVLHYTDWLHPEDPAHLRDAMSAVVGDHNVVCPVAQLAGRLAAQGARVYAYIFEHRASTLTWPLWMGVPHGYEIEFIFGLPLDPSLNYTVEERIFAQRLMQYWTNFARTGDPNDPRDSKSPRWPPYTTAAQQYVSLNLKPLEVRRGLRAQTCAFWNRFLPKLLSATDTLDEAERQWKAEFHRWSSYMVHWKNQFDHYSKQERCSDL
Description: Inhibitory potency against acetylcholinesterase (AChE) of rat cortex homogenate with ethopropazine as BChE inhibitor

Butyrylcholinesterase, sequence (Q9JKC1 whole entry): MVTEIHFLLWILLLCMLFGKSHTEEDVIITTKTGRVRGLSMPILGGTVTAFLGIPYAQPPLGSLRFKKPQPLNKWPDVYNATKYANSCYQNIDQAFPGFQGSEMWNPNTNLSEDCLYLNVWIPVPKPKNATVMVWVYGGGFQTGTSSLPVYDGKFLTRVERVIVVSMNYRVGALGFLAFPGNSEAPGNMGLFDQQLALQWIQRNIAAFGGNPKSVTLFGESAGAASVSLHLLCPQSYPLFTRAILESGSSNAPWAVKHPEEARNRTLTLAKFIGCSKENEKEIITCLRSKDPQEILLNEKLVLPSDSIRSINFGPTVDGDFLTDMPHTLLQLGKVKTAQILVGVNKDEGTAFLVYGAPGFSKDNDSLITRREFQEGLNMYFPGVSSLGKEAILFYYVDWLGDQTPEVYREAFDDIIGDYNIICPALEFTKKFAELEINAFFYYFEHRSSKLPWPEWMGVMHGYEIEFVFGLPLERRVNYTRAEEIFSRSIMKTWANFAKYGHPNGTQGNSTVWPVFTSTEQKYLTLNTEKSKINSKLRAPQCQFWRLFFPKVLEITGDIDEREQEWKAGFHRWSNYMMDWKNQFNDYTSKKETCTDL

SMILES	IC50 [1]	IC50 [2]
O=c1ccc2c([nH]1)CCCC2NCCCCCCCCCCCCNc1c2c(nc3ccccc13)CCCC2 (racemic)	434 nM	112 nM
Oc1ccc2c(n1)CCCC2NCCCCCNc1c2c(nc3ccccc13)CCCC2 (racemic)	220 nM	122 nM
Oc1ccc2c(n1)CCCC2NCCCCNc1c2c(nc3ccccc13)CCCC2 (racemic)	228 nM	42.6 nM
O=c1ccc2c([nH]1)CCCC2NCCCCCCCCCCNc1c2c(nc3ccccc13)CCCC2 (racemic)	81.5 nM	
Oc1ccc2c(n1)CCCC2NCCCCCCCCCNc1c2c(nc3ccccc13)CCCC2 (racemic)	150 nM	36.3 nM
O=c1ccc2c([nH]1)CCCC2NCCCCCCCCNc1c2c(nc3ccccc13)CCCC2 (racemic)	166 nM	26.2 nM
Oc1ccc2c(n1)CCCC2NCCCCCCCNc1c2c(nc3ccccc13)CCCC2 (racemic)	233 nM	53.1 nM
Oc1ccc2c(n1)CCCC2NCCCCCCNc1c2c(nc3ccccc13)CCCC2 (racemic)	223 nM	37.1 nM
